This passage reports T/C results from PubChem BioAssay AID344 (DTP/NCI, 2004).

Several values for one entry are separate records, joined by “and”; a condition that tells them apart may be missing. Identical values can stand only once. Toxic doses and inconclusive results are not listed. *1 amine or outer side, *2 acyl side, *3 side chain or, on linkers, in order; H or OH if unused. Where a SMILES comes first, the peptide text is derived from it. Bridges are numbered along the chain shown (N, C = ends). Roman numbers before positions name the chains, in order. [ ]: non-standard residue; d: D form. Actinocin(9to1) = Cc1c2oc3c(C)ccc(C(=O)[*:1])c3nc-2c(C(=O)[*:2])c(N)c1=O; aThr = C[C@H](O)[C@H](N)C(=O)O; NMeV = CN[C@H](C(=O)O)C(C)C; Sar = CNCC(=O)O

The test system of the assay is mice, LPC-1 plasma cell tumor ip, median survival T/C. As to the kind of experiment: NCI In Vivo Anticancer Drug Screen. Data for tumor model Lieberman Plasma Cell No. 1 (LPC-1) (intraperitoneal) in unknown mice. Particulars: endpoint: median survival time, higher = longer survival. The method, then: The antitumor activity of compounds was measured in mice bearing transplantable tumors. Survival or tumor size were measured and the results are expressed as the measurement made in the treated group (T) divided by the measurement made in the vehicle treated control group (C). The tumor model used in this assay is Lieberman Plasma Cell No. 1 (LPC-1) (intraperitoneal) in unknown mice

As to `CS(=O)(=O)OCCN(CCOS(C)(=O)=O)c1ccc(/C=N/Nc2ncnc3nc[nH]c23)cc1`, the T/C is 111 % of control (dose: 5.0 mg/kg/injection, schedule: Q03HX056 (sc), vehicle: other); 186 % of control (dose: 8.0 mg/kg/injection, schedule: Q01DX028 (sc), vehicle: carboxymethylcellulose (CMC)); 100 % of control (dose: 10.0 mg/kg/injection, schedule: Q03HX008 (sc), vehicle: other); 116 % of control (dose: 10.0 mg/kg/injection, schedule: Q03HX056 (sc), vehicle: other); 102 % of control (dose: 20.0 mg/kg/injection, schedule: Q03HX008 (sc), vehicle: other); 150 % of control (dose: 20.0 mg/kg/injection, schedule: Q03HX056 (sc), vehicle: other). For the same compound, the T/C reads like this: (dose: 36.0 mg/kg/injection, schedule: Q01DX028 (sc), vehicle: carboxymethylcellulose (CMC)) 171 % of control; (dose: 40.0 mg/kg/injection, schedule: Q03HX008 (sc), vehicle: other) 116 % of control; (dose: 55.0 mg/kg/injection, schedule: Q01DX028 (sc), vehicle: carboxymethylcellulose (CMC)) 210 % of control; (dose: 79.0 mg/kg/injection, schedule: Q01DX028 (sc), vehicle: other) 158 % of control; (dose: 80.0 mg/kg/injection, schedule: Q01DX001 (sc), vehicle: other) 94 % of control; (dose: 80.0 mg/kg/injection, schedule: Q01DX028 (ip), vehicle: other) 177 % of control. Besides, the T/C was 218 % of control and 102 % of control (dose: 80.0 mg/kg/injection, schedule: Q01DX028 (sc), vehicle: carboxymethylcellulose (CMC)); 111 % of control (dose: 80.0 mg/kg/injection, schedule: Q03DX004 (sc), vehicle: other); 108 % of control (dose: 80.0 mg/kg/injection, schedule: Q03HX008 (sc), vehicle: other); 210 % of control (dose: 119.0 mg/kg/injection, schedule: Q01DX028 (sc), vehicle: other); 166 % of control (dose: 120.0 mg/kg/injection, schedule: Q01DX028 (ip), vehicle: other); 122 % of control (dose: 120.0 mg/kg/injection, schedule: Q01DX028 (oral), vehicle: other). For the same compound, the T/C (dose: 120.0 mg/kg/injection, schedule: Q01DX028 (sc), vehicle: carboxymethylcellulose (CMC)) is 175 % of control and 252 % of control; the T/C (dose: 120.0 mg/kg/injection, schedule: Q01DX028 (sc), vehicle: other) is 189 % of control; the T/C (dose: 120.0 mg/kg/injection, schedule: Q03DX004 (sc), vehicle: other) was 116 % of control; the T/C (dose: 160.0 mg/kg/injection, schedule: Q01DX001 (sc), vehicle: other) is 97 % of control; the T/C (dose: 179.0 mg/kg/injection, schedule: Q01DX028 (sc), vehicle: other) was 187 % of control; the T/C (dose: 180.0 mg/kg/injection, schedule: Q01DX028 (ip), vehicle: other) was 111 % of control. The T/C is 164 % of control and 238 % of control (dose: 180.0 mg/kg/injection, schedule: Q01DX028 (sc), vehicle: carboxymethylcellulose (CMC)); 166 % of control (dose: 180.0 mg/kg/injection, schedule: Q01DX028 (sc), vehicle: other); 116 % of control (dose: 180.0 mg/kg/injection, schedule: Q03DX004 (sc), vehicle: other); 166 % of control (dose: 269.0 mg/kg/injection, schedule: Q01DX028 (sc), vehicle: other); 122 % of control (dose: 270.0 mg/kg/injection, schedule: Q01DX028 (ip), vehicle: other); 119 % of control (dose: 270.0 mg/kg/injection, schedule: Q01DX028 (oral), vehicle: other). Moreover, the T/C is 202 % of control (dose: 270.0 mg/kg/injection, schedule: Q01DX028 (sc), vehicle: carboxymethylcellulose (CMC)); 116 % of control (dose: 270.0 mg/kg/injection, schedule: Q03DX004 (sc), vehicle: other); 105 % of control (dose: 320.0 mg/kg/injection, schedule: Q01DX001 (sc), vehicle: other); 105 % of control (dose: 640.0 mg/kg/injection, schedule: Q01DX001 (sc), vehicle: other).

As for `C[C@]12C=CC(=O)C=C1CC[C@@H]1[C@@H]2C(=O)C[C@@]2(C)[C@H]1CC[C@]2(O)C(=O)CO`, the T/C runs as follows: (dose: 16.0 mg/kg/injection, schedule: Q01DX028 (sc), vehicle: water) 86 % of control; (dose: 32.0 mg/kg/injection, schedule: Q01DX028 (sc), vehicle: water) 86 % of control; (dose: 50.0 mg/kg/injection, schedule: Q01DX028 (sc), vehicle: water) 105 % of control; (dose: 128.0 mg/kg/injection, schedule: Q01DX028 (sc), vehicle: water) 91 % of control; (dose: 200.0 mg/kg/injection, schedule: Q01DX028 (sc), vehicle: water) 92 % of control.

For the compound `CS(=O)(=O)OCCCCOS(C)(=O)=O`, the T/C (dose: 1.25 mg/kg/injection, schedule: Q01DX028 (sc), vehicle: carboxymethylcellulose (CMC)) was 92 % of control; the T/C (dose: 2.5 mg/kg/injection, schedule: Q01DX028 (sc), vehicle: carboxymethylcellulose (CMC)) was 102 % of control; the T/C (dose: 5.0 mg/kg/injection, schedule: Q01DX028 (sc), vehicle: carboxymethylcellulose (CMC)) is 102 % of control; the T/C (dose: 10.0 mg/kg/injection, schedule: Q01DX028 (sc), vehicle: carboxymethylcellulose (CMC)) was 123 % of control.

Take `Cn1cnc([N+](=O)[O-])c1Sc1nc(N)nc2nc[nH]c12`: the T/C was 97 % of control (dose: 0.5 mg/kg/injection, schedule: Q01DX028 (sc), vehicle: carboxymethylcellulose (CMC)); 117 % of control (dose: 1.0 mg/kg/injection, schedule: Q01DX028 (sc), vehicle: carboxymethylcellulose (CMC)); 100 % of control (dose: 4.0 mg/kg/injection, schedule: Q01DX028 (sc), vehicle: carboxymethylcellulose (CMC)).

`Cc1c2oc3c(C)ccc(C(=O)N[C@@H]4C(=O)N[C@H](C(C)C)C(=O)N5CCC[C@H]5C(=O)N(C)CC(=O)N(C)[C@@H](C(C)C)C(=O)O[C@H]4C)c3nc-2c(C(=O)N[C@@H]2C(=O)N[C@H](C(C)C)C(=O)N3CCC[C@H]3C(=O)N(C)CC(=O)N(C)[C@@H](C(C)C)C(=O)O[C@H]2C)c(N)c1=O` (I: [aThr][dV]P[Sar][NMeV] / II: [aThr][dV]P[Sar][NMeV]; ester I:1-I:C, II:1-II:C; linker I:N-II:N via Actinocin(9to1)): the T/C reads like this: (dose: 0.03 mg/kg/injection, schedule: Q01DX028 (sc), vehicle: saline) 95 % of control; (dose: 0.06 mg/kg/injection, schedule: Q01DX028 (sc), vehicle: saline) 100 % of control; (dose: 0.13 mg/kg/injection, schedule: Q01DX028 (sc), vehicle: saline) 95 % of control; (dose: 0.25 mg/kg/injection, schedule: Q01DX028 (sc), vehicle: saline) 90 % of control.

In the case of `CO[C@H](C(=O)[C@@H](O)[C@@H](C)O)[C@@H]1Cc2cc3cc(OC4CC(OC5CC(O)C(O)C(C)O5)C(O)C(C)O4)c(C)c(O)c3c(O)c2C(=O)[C@H]1OC1CC(OC2CC(OC3CC(C)(O)C(O)C(C)O3)C(O)C(C)O2)C(O)C(C)O1` (some centres not stated), the T/C by setting is: (dose: 0.2 mg/kg/injection, schedule: Q01DX028 (sc), vehicle: saline) 100 % of control; (dose: 0.4 mg/kg/injection, schedule: Q01DX028 (sc), vehicle: saline) 97 % of control.
